Consider ten compounds from ChEMBL document CHEMBL1146593, “Constituents of the stem bark of Pongamia pinnata with the potential to induce quinone reductase” (J Nat Prod, 2003).

A short description of assay [1]: Inhibition of mouse Hepa-1c1c7 cells assessed as cell viability. In kind it is cell-based.
The nature of assay [2]: Chemoprevention index, ratio of IC50 for mouse Hepa-1c1c7 cells to drug level required to double NADPH:quinone reductase activity in mouse Hepa-1c1c7 cells. Type of assay: functional.

A word on the IC50: it is the midpoint of a concentration-inhibition curve.

The structures appear in SMILES notation. ≈ marks a conversion by molar mass, not a printed value.

Turning to `COc1cc(OC)c2c(c1C=O)O[C@H](c1ccccc1)CC2=O`, in assay [1], the IC50 is more than 10 mg/L. In assay [2], the Ratio is more than 3.9.

With `CC1=C[C@@H]2[C@@H](CC1)[C@](C)(O)CC[C@H]2C(C)C`, the IC50 in assay [1] is more than 5 mg/L. Further, the Ratio in assay [2] was more than 2.2.

Consider `CO/C(=C\C(=O)c1c(OC)cc2c(c1OC)C=CC(C)(C)O2)c1ccccc1`, for which, in assay [1], the IC50 was 9.6 mg/L (≈ 25.2 µM). For the same compound, in assay [2], the Ratio turned out to be 8.

In the case of `C=C(C)[C@@H](O)Cc1c(OC)cc(OC)c2c1O[C@H](c1ccccc1)CC2=O`, in assay [1], the IC50 amounted to 19.3 mg/L (≈ 52.4 µM). Besides, the Ratio in assay [2] stood at 4.4.

Consider `COc1cc2c(c3oc(-c4ccccc4)cc(=O)c13)C=CC(C)(C)O2` [CANDIDIN], for which, in assay [1], the IC50 was 4.5 mg/L (≈ 13.5 µM). Besides, the Ratio in assay [2] is given as 1.

As to `COc1cc(OC)c2c(c1CC=C(C)C)O[C@H](c1ccccc1)CC2=O` [CANDIDONE], the IC50 in assay [1] came to 4.1 mg/L (≈ 11.6 µM). Also, in assay [2], the Ratio stood at 0.9.

As for `COc1cc2c(c(OC)c1C(=O)CC(=O)c1ccc3c(c1)OCO3)C=CC(C)(C)O2` [PONGAPINONE A], the IC50 in assay [1] was determined as 23.8 mg/L (≈ 58 µM). Further, in assay [2], the Ratio is on record as 4.8.

As for `COc1cc(OC)c2c(c1CC=C(C)C)O[C@H](c1ccc3c(c1)OCO3)CC2=O` [PONGAPINONE B], the IC50 in assay [1] is 19.1 mg/L (≈ 48.2 µM). The Ratio in assay [2] stood at 7.6.

On to `COc1cc2c(c(OC)c1C(=O)/C=C(\O)c1ccccc1)C=CC(C)(C)O2` [PRAECANSONE B], for which the IC50 in assay [1] turned out to be 6.5 mg/L (≈ 17.7 µM). For the same compound, the Ratio in assay [2] came out at 1.8.

Regarding `C[S+]([O-])CCCCN=C=S` (stereo not given) [SULFORAPHANE], in assay [1], the IC50 amounted to 2.1 mg/L (≈ 11.8 µM). In addition, the Ratio in assay [2] stood at 24.1.
